Measured values published in ChEMBL document CHEMBL3991943, “Pharmaceutical formulations comprising salts of a protein kinase inhibitor and methods of using same” (2013).

Key:
[1] = system: Rattus norvegicus; experiment: Acute toxicity in rat assessed as recumbency at 10 mg/kg, iv administered for 30 mins measured after 1 hr post dose; assay type: organism-based; conditions: in vivo
[2] = system: Rattus norvegicus; experiment: Acute toxicity in rat assessed as normal appearance at 10 mg/kg, iv administered for 30 mins measured on day 4; assay type: organism-based; conditions: in vivo, 0.5 h
[3] = system: Rattus norvegicus; experiment: Acute toxicity in rat assessed as recumbency at 10 mg/kg, iv administered for 30 mins measured immediately and 10 mins post dose; assay type: organism-based; conditions: in vivo
[4] = system: Rattus norvegicus; experiment: Acute toxicity in rat assessed as lethargy at 10 mg/kg, iv administered for 30 mins measured after 1 hr post dose; assay type: organism-based; conditions: in vivo
[5] = system: Canis familiaris; experiment: Acute toxicity in Beagle dog assessed as animal appearance at 0.625 to 20 mg/kg, iv administered with 48 to 96 hrs between dose escalations with exception of 11 days between dose 5 and 6 measured after doses 1 through 5 and prior to dose 6; assay type: organism-based, Canis lupus familiaris; conditions: in vivo
[6] = system: Rattus norvegicus; experiment: Acute toxicity in rat assessed as induction of red urine excretion at 10 mg/kg, iv administered for 30 mins measured immediately, 10 mins and 1 hr post dose; assay type: organism-based; conditions: in vivo
[7] = system: Rattus norvegicus; experiment: Acute toxicity in rat assessed as labored breathing at 10 mg/kg, iv administered for 30 mins measured immediately and 10 mins post dose; assay type: organism-based; conditions: in vivo
[8] = system: Mus musculus; experiment: Toxicity in athymic nude mouse xenografted with human TT cells at 7.5 to 15 mg/kg, ip qd administered for 2 weeks; assay type: organism-based; conditions: in vivo, 336 h
[9] = system: Mus musculus; experiment: Toxicity in athymic nude mouse xenografted with human A549 cells assessed as loss of body weight at 50 to 150 mg/kg, po qd administered 5 days for 3 weeks; assay type: organism-based; conditions: in vivo
[10] = system: Canis familiaris; experiment: Acute toxicity in Beagle dog assessed as facial swelling at 0.625 to 20 mg/kg, iv dosed with 48 to 96 hrs between dose escalations with exception of 11 days between dose 5 and 6 measured during dose 6 administration; assay type: organism-based, Canis lupus familiaris; conditions: in vivo
[11] = system: Canis familiaris; experiment: Acute toxicity in Beagle dog assessed as anxiety at 0.625 to 20 mg/kg, iv dosed with 48 to 96 hrs between dose escalations with exception of 11 days between dose 5 and 6 measured during dose 6 administration; assay type: organism-based, Canis lupus familiaris; conditions: in vivo
[12] = system: Canis familiaris; experiment: Acute toxicity in Beagle dog assessed as defecation at 0.625 to 20 mg/kg, iv dosed with 48 to 96 hrs between dose escalations with exception of 11 days between dose 5 and 6 measured during dose 6 administration; assay type: organism-based, Canis lupus familiaris; conditions: in vivo
[13] = system: Rattus norvegicus; experiment: Acute toxicity in rat assessed as lethargy at 10 mg/kg, iv administered for 30 mins measured at 1 hr post dose; assay type: organism-based; conditions: in vivo
[14] = system: Rattus norvegicus; experiment: Acute toxicity in rat assessed as bright red lungs at 10 mg/kg, iv administered as single dose for 30 mins measured on day 4; assay type: organism-based; conditions: in vivo, 0.5 h
[15] = system: Canis familiaris; experiment: Acute toxicity in female Beagle dog assessed as intestinal mucosal congestion at 0.625 to 20 mg/kg, iv administered with 48 to 96 hrs between dose escalations with exception of 11 days between dose 5 and 6 measured after 21 days; assay type: organism-based, Canis lupus familiaris; conditions: in vivo, 504 h
[16] = system: Rattus norvegicus; experiment: Acute toxicity in rat assessed as wobbly appearance at 0.625 to 10 mg/kg, iv administered as single dose for 30 mins measured immediately, 10 mins and 1 hr post dose; assay type: organism-based; conditions: in vivo
[17] = system: Canis familiaris; experiment: Acute toxicity in Beagle dog assessed as thrombus formation in veins at 10 mg/kg, iv administered for 48 hrs followed by 20 mg/kg, iv administered for 3 days measured post dose; assay type: organism-based, Canis lupus familiaris; conditions: in vivo
[18] = system: Canis familiaris; experiment: Acute toxicity in Beagle dog assessed as weight gain at 10 mg/kg, iv administered for 48 hrs followed by 20 mg/kg, iv administered for 3 days measured everyday after second dose; assay type: organism-based, Canis lupus familiaris; conditions: in vivo
[19] = system: Rattus norvegicus; experiment: Acute toxicity in rat assessed as loss of body weight at 0.625 to 10 mg/kg, iv administered as single dose for 30 mins measured on day 2; assay type: organism-based; conditions: in vivo, 0.5 h
[20] = system: Rattus norvegicus; experiment: Acute toxicity in rat assessed as red tinged urine at 10 mg/kg, iv administered for 30 mins measured post dose; assay type: organism-based; conditions: in vivo, 0.5 h
[21] = system: Rattus norvegicus; experiment: Acute toxicity in rat assessed as mortality at 10 mg/kg, iv administered for 30 mins measured post dose; assay type: organism-based; conditions: in vivo, 0.5 h
[22] = system: Canis familiaris; experiment: Acute toxicity in Beagle dog assessed as adverse events at 10 mg/kg, iv administered for 48 hrs followed by 20 mg/kg, iv administered for 3 days measured everyday after second dose; assay type: organism-based, Canis lupus familiaris; conditions: in vivo
[23] = system: Mus musculus; experiment: Toxicity in athymic nude mouse xenografted with human HT-29 cells assessed as loss of body weight at 10 to 20 mg/kg, ip qd administered 5 days for 2 weeks; assay type: organism-based; conditions: in vivo
[24] = system: Mus musculus; experiment: Toxicity in athymic nude mouse xenografted with human HT-29 cells assessed as overt toxicity at 10 to 20 mg/kg, ip qd administered 5 days for 2 weeks; assay type: organism-based; conditions: in vivo
[25] = system: Canis familiaris; experiment: Acute toxicity in female Beagle dog assessed as meningeal vessel congestion at 0.625 to 20 mg/kg, iv administered with 48 to 96 hrs between dose escalations with exception of 11 days between dose 5 and 6 measured after 21 days; assay type: organism-based, Canis lupus familiaris; conditions: in vivo, 504 h
[26] = system: Canis familiaris; experiment: Acute toxicity in female Beagle dog assessed as mortality at 0.625 to 20 mg/kg, iv measured after 5 mins of completion of dose 6 administration; assay type: organism-based, Canis lupus familiaris; conditions: in vivo
[27] = system: Canis familiaris; experiment: Acute toxicity in Beagle dog at 20 mg/kg, iv; assay type: organism-based, Canis lupus familiaris; conditions: in vivo
[28] = system: Canis familiaris; experiment: Acute toxicity in Beagle dog assessed as depression at 0.625 to 20 mg/kg, iv dosed with 48 to 96 hrs between dose escalations with exception of 11 days between dose 5 and 6 measured during dose 6 administration; assay type: organism-based, Canis lupus familiaris; conditions: in vivo
[29] = system: Canis familiaris; experiment: Acute toxicity in Beagle dog assessed as weight gain at 0.625 to 20 mg/kg, iv dosed with 48 to 96 hrs between dose escalations with exception of 11 days between dose 5 and 6 measured during course of 21 study days; assay type: organism-based, Canis lupus familiaris; conditions: in vivo
[30] = system: Canis familiaris; experiment: Acute toxicity in Beagle dog assessed as recumbency at 0.625 to 20 mg/kg, iv dosed with 48 to 96 hrs between dose escalations with exception of 11 days between dose 5 and 6 measured during dose 6 administration; assay type: organism-based, Canis lupus familiaris; conditions: in vivo
[31] = system: Canis familiaris; experiment: Acute toxicity in male Beagle dog assessed as mild venous congestion in meningeal vein between brain hemispheres and in venous sinus on cranial floor at 10 mg/kg, iv administered for 48 hrs followed by 20 mg/kg, iv administered for 3 days measured post dose; assay type: organism-based, Canis lupus familiaris; conditions: in vivo
[32] = system: Rattus norvegicus; experiment: Acute toxicity in rat assessed as red urine at 0.625 to 10 mg/kg, iv administered as single dose for 30 mins measured immediately, 10 mins and 1 hr post dose; assay type: organism-based; conditions: in vivo
[33] = system: Canis familiaris; experiment: Acute toxicity in male Beagle dog assessed as adverse clinical signs at 10 mg/kg, iv; assay type: organism-based, Canis lupus familiaris; conditions: in vivo
[34] = system: A549; experiment: Antitumor activity against human A549 cells xenografted in athymic nude mouse assessed as tumor growth at 10 mg/kg, po qd administered 5 days for 3 weeks measured on day 26 (reference value: 43 mm3/day); assay type: functional
[35] = system: Rattus norvegicus; experiment: Acute toxicity in rat assessed as dark red mottled lungs at 10 mg/kg, iv administered for 30 mins measured post dose; assay type: organism-based; conditions: in vivo, 0.5 h
[36] = system: Rattus norvegicus; experiment: Acute toxicity in rat assessed as induction of red urine excretion at 10 mg/kg, iv administered for 30 mins measured after 1 hr post dose; assay type: organism-based; conditions: in vivo
[37] = system: Canis familiaris; experiment: Acute toxicity in Beagle dog assessed as urination at 0.625 to 20 mg/kg, iv dosed with 48 to 96 hrs between dose escalations with exception of 11 days between dose 5 and 6 measured during dose 6 administration; assay type: organism-based, Canis lupus familiaris; conditions: in vivo
[38] = system: OVCAR-3; experiment: Induction of DNA damage in human OVCAR3 cells assessed as increase in gamma-H2AX levels at 10 uM in presence of topotecan; assay type: functional
[39] = system: Canis familiaris; experiment: Acute toxicity in male Beagle dog assessed as animal appearance at 0.625 to 20 mg/kg, iv dosed with 48 to 96 hrs between dose escalations with exception of 11 days between dose 5 and 6 measured following day after dose 6 administration; assay type: organism-based, Canis lupus familiaris; conditions: in vivo
[40] = system: Rattus norvegicus; experiment: Acute toxicity in rat assessed as normal appearance at 0.625 to 10 mg/kg, iv administered as single dose for 30 mins measured on day 4; assay type: organism-based; conditions: in vivo, 0.5 h
[41] = system: Mus musculus; experiment: Toxicity in athymic nude mouse xenografted with human A549 cells assessed as loss of body weight at 10 mg/kg, po qd administered 5 days for 3 weeks; assay type: organism-based; conditions: in vivo

Measured: Activity

S=C(NCc1ccc2c(c1)OCO2)N1CCN(c2ncnc3c2oc2ccccc23)CC1 [AMUVATINIB]
19.5 mm3/day: [34]
Non-Toxic: [1] | [2] | [4] | [5] | [8] | [9] | [23] | [33] | [36] | [39] | [40]
103%: [38]
not listed: [41]
Toxic: all other assays above

O=c1[nH]cc(F)c(=O)[nH]1 [FLUOROURACIL]
Non-Toxic: [41]
